The record followed here is ChEMBL document CHEMBL4177586, “Small molecule adjuvants that suppress both chromosomal and mcr-1 encoded colistin-resistance and amplify colistin efficacy in polymyxin-susceptible bacteria” (Bioorg Med Chem, 2017).

Experiment [1] deals with Acinetobacter baumannii. Briefly: Potentiation of colistin-induced antimicrobial activity against Acinetobacter baumannii ATCC 17978 expressing mcr1 gene assessed as reduction in colistin MIC at 60 uM incubated for overnight duration by CLSI based method relative to colistin alone control. The class given is functional.
Experiment [2] has as its system Acinetobacter baumannii. Description: Antimicrobial activity against Acinetobacter baumannii SM1536 incubated for overnight duration by CLSI based method. It counts as functional, organism-based.
The test system of experiment [3] is Escherichia coli. Description: Antimicrobial activity against Escherichia coli ATCC 25922 incubated for overnight duration by CLSI based method. It counts as functional, organism-based.
Experiment [4] relates to Escherichia coli. Description: Antimicrobial activity against Escherichia coli YD626 expressing mcr1 gene incubated for overnight duration by CLSI based method. It counts as functional, organism-based.
The subject of experiment [5] is Acinetobacter baumannii. Briefly: Antimicrobial activity against Acinetobacter baumannii SM1536 expressing mcr1 gene incubated for overnight duration by CLSI based method. It counts as functional, organism-based.
Experiment [6] deals with Klebsiella pneumoniae. Briefly: Antimicrobial activity against Klebsiella pneumoniae 2210291 expressing mcr1 gene incubated for overnight duration by CLSI based method. The class given is functional, organism-based.
The subject of experiment [7] is Klebsiella pneumoniae. Description: Antimicrobial activity against Klebsiella pneumoniae 2210291 incubated for overnight duration by CLSI based method. The class given is functional, organism-based.
Experiment [8] relates to Escherichia coli. Description: Antimicrobial activity against Escherichia coli ATCC 25922 expressing mcr1 gene incubated for overnight duration by CLSI based method. The class given is functional, organism-based.
The test system of experiment [9] is Acinetobacter baumannii. Briefly: Antimicrobial activity against Acinetobacter baumannii ATCC 17978 expressing mcr1 gene incubated for overnight duration by CLSI based method. The class given is functional, organism-based.
Experiment [10] relates to Escherichia coli. Description: Antimicrobial activity against Escherichia coli YD626 incubated for overnight duration by CLSI based method. It counts as functional, organism-based.
Experiment [11] has as its system Acinetobacter baumannii. Briefly: Antimicrobial activity against Acinetobacter baumannii ATCC 17978 incubated for overnight duration by CLSI based method. It counts as functional, organism-based.

Turning to `O=C(NCCc1c[nH]c2ccccc12)c1cc(Cl)c(Cl)[nH]1`, the “fold change (FC)” value in experiment [1] worked out at 32.
For orientation: MIC means the smallest concentration in the dilution series that meets the test's criterion for growth inhibition. Read a high MIC as a less susceptible organism. Turning to COLISTIN, the MIC was found to be 2 µg/mL in [2]; 1 µg/mL in experiment [3]; 4 µg/mL in experiment [4]; 64 µg/mL in experiment [5]; 16 µg/mL in [6]; 1 µg/mL in experiment [7]. Besides, the MIC came to 8 µg/mL in [8], 16 µg/mL in [9], 1 µg/mL in experiment [10] and 2 µg/mL in [11].
